Test results published in publication PMC10600239, “Selective MCL-1 inhibitor ABBV-467 is efficacious in tumor models but is associated with cardiac troponin increases in patients” (Communications Medicine, 2023).
Values joined by “and” are separate entries in the source; they are usually repeats but may differ in a detail not shown here. Identical values can stand only once. Like-named read-outs stand apart in the source and are kept apart here.

How the values were obtained:
AMO-1 cells = experiment: In vitro cell viability assay (CellTiter-Glo); format: cell-based, human; design: Cell viability after compound washout (CellTiter-Glo): scale not given here; details: for Cell viability after compound washout (CellTiter-Glo): AMO-1, replicates
Method: All cell lines were grown and treated in RPMI 1640 or Dulbecco’s modified Eagle medium (Sigma, St. Louis, MO) supplemented with 10% fetal bovine serum (Gibco) or 10% human serum (Sigma) and maintained in a humidified incubator at 5% CO2 and 37 °C. DLD-1, MV4-11, NCI-H929 (all ATCC, Manassas, VA, USA) and AMO-1 (DSMZ, Braunschweig, Germany) cells were plated 4000 cells per well in 384-well tissue culture plates and treated with compounds of interest for 24 h at 37 °C, 5% CO2 humidified incubator. Each concentration was tested in duplicate at least 3 separate times. Adherent cells were allowed to adhere overnight prior to treatment. Alternatively, AMO-1 or NCI-H929 cells were treated with ABBV-467 for the indicated contact times (1–24 h) at 37 °C in a 5% CO2 humidified incubator and washed 3 times with compound-free media prior to incubation for the remainder of a 24-h treatment period. Cell viability was subsequently determined using CellTiter-Glo (Promega, Madison, WI, USA) according to the manufacturer’s instructions.
For in vitro viability assays, mean EC50 and EC90 values were determined from the resulting dose-response curves from at least 3 independent experiments, and depict the mean ± standard error of the mean.
Fig. 2 Apoptosis induced by ABBV-467 is mechanism based and induces cell death in MCL-1-dependent cell lines after short target engagement periods. H929 cells were treated with ABBV-467 in the presence or absence of the pan-caspase inhibitor z-VAD-fmk (50 µM) and the impact on caspase-3/7 activation (a), mitochondrial membrane potential (ΔΨm; b), and apoptosis (c) determined. Alternatively, BAK-deficient SKBR3 cells were treated with ABBV-467 for 24 h and the impact on cell viability compared with the parental cell line, determined by CellTiter-Glo. Inset depicts a western blot of BAK and BAX expression in SKBR3 cell variants using GAPDH as a loading control. Each of the 3 proteins were probed on separate blots (d). Data in (a–d) are presented as the mean ± standard error of the mean. H929 and AMO-1 cells were treated with ABBV-467 at the indicated concentrations and the impact on caspase-3/7 activation and viability (DRAQ7-positive) cells determined over time by Incucyte®. Data are presented as the mean ± standard deviation (e). H929 or AMO-1 cells were cultured in media containing 10% human serum and treated with ABBV-467 for the indicated contact times. Cells were subsequently washed 3 times with drug-free media and incubated in drug-free media for the remainder of the 24-h treatment period at 37 °C before cell viability was determined by CellTiter-Glo. Mean EC50 and EC90 values were determined from the resulting dose-response curves from at least 3 independent experiments, each assessed in quadruplicate, and depict the mean ± standard error of the mean. Presented ABBV-467 dose-response curves in H929 and AMO-1 cells were compiled from at least 3 independent experiments (f).

BCL-XL = BCL-XL (Homo sapiens, UniProt Q07817); experiment: Time-resolved FRET binding assay
Method: (§1) Binding affinities for MCL-1, BCL-2, BCL-XL, BCL-W, and BCL2-A1 were determined using a time-resolved fluorescence resonance energy transfer (FRET) assay. Test compounds were serially diluted in DMSO starting at […] (20× starting concentration; 100% DMSO followed by a 1:10 dilution of the compound DMSO plate into assay buffer); 10 µL of the compound in 10% DMSO was then transferred into a 384-well plate (low-volume Corning #3673 assay plate). Glutathione S-transferase (GST)-tagged recombinant BCL-2, BCL-XL, MCL-1, BCL-W, or BCL2-A1 protein (1 nM each) were mixed with 100 nM Oregon Green™-labeled f-BAK peptide probe and 1 nM Tb-labeled anti-GST antibody were mixed. Then 10 µL of a 2× protein/probe/antibody mix was added to each well of increasing concentrations of test compound in assay buffer (20 mM potassium phosphate, pH 7.6, 50 mM NaCl, 1 mM ethylenediaminetetraacetic acid disodium salt dihydrate, 0.05% pluronic acid F-68, 1 mM DL-dithiothreitol) at room temperature (final concentrations listed in Supplementary Table S2). The samples were then mixed on a shaker for 1 min and incubated for an additional 1 h at room temperature. For each assay plate, a probe/antibody and protein/antibody/probe mixture were included as a negative and a positive control, respectively. Fluorescence was measured on the EnVision™ (Perkin Elmer) using a 340/35-nm excitation filter and 520/525- (F-Bak) and 495/510-nm (Tb-labeled anti-glutathione S-transferase [GST] antibody) emission filters. Dissociation constants were determined using Wang’s equation[35]. The time-resolved FRET assay can be performed in the presence of varying concentrations of human serum to determine apparent half-maximal inhibitory concentration after serum protein binding.

dog MCL1 = target: T1, dog MCL1 (Canis lupus familiaris, UniProt Q8HYS5); experiment: TR-FRET binding assay, MCL-1 orthologs; details: read-out: Ki, canine MCL-1
T1 construct: rhesus monkey (iso4, NM_001 1089 3 7, AA 171-327), dog (NM_001 0030 16, AA17 1- 327); made in house; host or cells: E. coli BL21(DE3)-T1R
Method: as §1
Supplementary Table S10: MCL-1 ortholog information and ABBV-467 affinity across species […]
Mouse Mus musculus Rattus Canis lupus Macaca sp.
Protein name Mcl1 Mcl1 M CL1 M CL1 […]
Amino acid sequence homology determined with NCBI BLAST (http://blast.ncbi.nlm.nih.gov). […]

Chain of BCL-XL (Q07817 whole entry): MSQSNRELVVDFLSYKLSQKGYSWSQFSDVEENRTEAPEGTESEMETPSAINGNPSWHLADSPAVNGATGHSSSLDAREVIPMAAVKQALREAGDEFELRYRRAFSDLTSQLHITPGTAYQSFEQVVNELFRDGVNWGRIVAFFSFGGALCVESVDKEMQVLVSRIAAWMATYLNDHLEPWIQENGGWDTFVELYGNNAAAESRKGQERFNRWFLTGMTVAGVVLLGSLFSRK
T1 sequence (Q8HYS5 171-327): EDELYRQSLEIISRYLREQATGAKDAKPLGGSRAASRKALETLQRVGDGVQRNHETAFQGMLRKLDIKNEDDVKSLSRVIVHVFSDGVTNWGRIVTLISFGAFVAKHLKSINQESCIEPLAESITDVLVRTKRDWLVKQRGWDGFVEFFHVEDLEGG

SMILES: Cc1c(Cl)c2c(Cl)c(C)c1-c1c(-c3ccc(F)cc3)sc3ncnc(c13)O[C@@H](C(=O)O)Cc1cc(ccc1OCc1ccnc(-c3ccc(OC[C@H]4COCCO4)cc3)n1)OC[C@@H](CN1CCN(C)CC1)O2 [ABBV-467]
- EC50 (AMO-1 cells; AMO-1, individual determinations, read-out: Individual EC50): 0.224 nM and 0.216 nM and 0.212 nM and 0.145 nM and 0.159 nM and 0.131 nM and 0.106 nM and 0.0956 nM and 0.0874 nM and 0.217 nM and 0.188 nM
- Cell viability after compound washout (CellTiter-Glo) (AMO-1 cells; 2hr + 22hr, Log Conc 1): 0.4281 and 0.471 and 0.3421 and 0.36 and 0.84 and 0.79 and 0.71 and 0.8 and 2.671 and 3.13 and 2.51 and 2.629
- Cell viability after compound washout (CellTiter-Glo) (AMO-1 cells; c49-c56, head empty, Log Conc 0.39794): 0.4
- EC50 (AMO-1 cells; Homo sapiens, AMO1, 10% human serum, contact time 1 hr, washout, viability at 24 h, read-out: AMO-1 Mean EC50): 31.9 nM
- EC90 (AMO-1 cells; Homo sapiens, AMO1, 10% human serum, contact time 2 hr, washout, viability at 24 h): 174 nM
- EC50 (AMO-1 cells; Homo sapiens, AMO1, 10% human serum, contact time 2 hr, washout, viability at 24 h, read-out: AMO-1 Mean EC50): 27.1 nM
- EC90 (AMO-1 cells; Homo sapiens, AMO1, 10% human serum, contact time 4 hr, washout, viability at 24 h): 141 nM
- EC50 (AMO-1 cells; Homo sapiens, AMO1, 10% human serum, contact time 4 hr, washout, viability at 24 h, read-out: AMO-1 Mean EC50): 17.4 nM
- EC90 (AMO-1 cells; Homo sapiens, AMO1, 10% human serum, contact time 6 hr, washout, viability at 24 h): 114 nM
- EC50 (AMO-1 cells; Homo sapiens, AMO1, 10% human serum, contact time 6 hr, washout, viability at 24 h, read-out: AMO-1 Mean EC50): 9.4 nM
- EC90 (AMO-1 cells; Homo sapiens, AMO1, 24 h, 10% human serum, contact time 24 hr): 6.7 nM
- EC50 (AMO-1 cells; Homo sapiens, AMO1, 24 h, 10% human serum, contact time 24 hr, read-out: AMO-1 Mean EC50): 0.7 nM
- EC50 (AMO-1 cells; Homo sapiens, AMO1, 24 h, read-out: AMO-1 EC50 (nM, 10% FBS), 10% FBS, 24 h continuous treatment): 0.1 nM
- EC50 (AMO-1 cells; Homo sapiens, AMO1, AMO-1, arithmetic mean, read-out: Arithmetic Mean EC50 nM): 0.15 nM
- EC50 (AMO-1 cells; Homo sapiens, AMO1, AMO-1, arithmetic mean, read-out: Arithmetic Mean EC50 µM): 0.155 nM
- EC50 (AMO-1 cells; Homo sapiens, AMO1, read-out: Individual EC50 µM, AMO-1, individual determinations): 0.112 nM
- EC50 (AMO-1 cells; read-out: AMO-1 EC50 (nM, 10% FBS), 10% FBS, 24 h continuous treatment): 0.16 nM
- EC50 (AMO-1 cells; read-out: Individual EC50 µM, AMO-1, individual determinations): 0.122 nM
- Ki (BCL-XL; TR-FRET, arithmetic mean, read-out: Arithmetic Mean Ki, BCL-XL): > 376 nM
- Ki (BCL-XL; TR-FRET, individual determinations, read-out: Individual Ki, BCL-XL): > 376 nM
- Ki (BCL-XL; read-out: TR-FRET, Ki, nM BCL-XL): > 376 nM
- Ki (dog MCL1): < 0.1 nM
